In ChEMBL document CHEMBL4414569, “Myxochelin- and Pseudochelin-Derived Lipoxygenase Inhibitors from a Genetically Engineered Myxococcus xanthus Strain” (J Nat Prod, 2019):
Calls of active or inactive are those of the source. The calls are words filed in the database; no cut-off is given here.

molecular target: T1, Polyunsaturated fatty acid 5-lipoxygenase (Homo sapiens, UniProt P09917); experiment: Inhibition of recombinant human 5-lipoxygenase using arachidonic acid as substrate preincubated for 10 mins followed by susbtrate addition and measured after 10 mins by reverse phase HPLC method
T1 sequence (P09917 whole entry): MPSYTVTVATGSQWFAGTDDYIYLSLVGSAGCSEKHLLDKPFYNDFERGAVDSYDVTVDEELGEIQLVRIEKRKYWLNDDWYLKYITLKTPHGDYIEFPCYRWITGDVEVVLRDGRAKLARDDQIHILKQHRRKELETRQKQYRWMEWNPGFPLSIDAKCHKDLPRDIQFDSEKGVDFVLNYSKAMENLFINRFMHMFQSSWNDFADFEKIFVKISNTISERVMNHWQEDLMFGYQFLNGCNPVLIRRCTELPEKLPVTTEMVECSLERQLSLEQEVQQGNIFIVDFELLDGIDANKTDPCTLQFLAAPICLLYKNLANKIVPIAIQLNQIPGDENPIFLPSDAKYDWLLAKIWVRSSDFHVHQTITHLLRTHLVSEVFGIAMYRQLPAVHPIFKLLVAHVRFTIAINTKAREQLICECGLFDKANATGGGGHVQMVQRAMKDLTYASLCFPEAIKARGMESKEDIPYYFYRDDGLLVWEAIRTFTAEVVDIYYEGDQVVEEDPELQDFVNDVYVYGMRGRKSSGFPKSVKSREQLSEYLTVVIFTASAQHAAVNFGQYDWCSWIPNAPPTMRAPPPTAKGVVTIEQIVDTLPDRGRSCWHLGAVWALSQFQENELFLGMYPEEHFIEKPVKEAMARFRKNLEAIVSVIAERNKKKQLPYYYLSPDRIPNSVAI

| IC50 [nM] | SMILES |
| --- | --- |
| 900 | O=C(NCCCC[C@H]1CN=C(c2cccc(O)c2O)N1)c1cccc(O)c1O |
| > 10000 | O=C(NCCCC[C@H]1CN=C(c2ccccc2O)N1)c1ccccc1O |
| > 10000 | NC[C@H](CCCCNC(=O)c1ccccc1O)NC(=O)c1ccccc1O |
| 1900 | O=C(NCCCC[C@@H](CO)NC(=O)c1cccc(O)c1O)c1cccc(O)c1O |
| 1500 | O=C(NCCCC[C@H]1CN=C(c2ccccc2O)N1)c1cccc(O)c1O |
| 5600 | NC[C@H](CCCCNC(=O)c1cccc(O)c1O)NC(=O)c1ccccc1O |

Further lines, the compound ahead of its results:

| SMILES | IC50 [nM] |
| --- | --- |
| NC[C@H](CCCCNC(=O)c1cccc(O)c1O)NC(=O)c1cccc(O)c1O | 1400 |
| O=C(NCCCC[C@H]1CN=C(c2cccc(O)c2O)N1)c1c(O)cccc1F | 1100 |
| NC[C@H](CCCCNC(=O)c1ccccc1O)NC(=O)c1cccc(O)c1O | 10000 |
| O=C(NCCCC[C@H]1CN=C(c2c(O)cccc2F)N1)c1cccc(O)c1O | 2200 |
| NC[C@H](CCCCNC(=O)c1c(O)cccc1F)NC(=O)c1cccc(O)c1O | > 10000 |
| O=C(NCCCC[C@H]1CN=C(c2cccc(O)c2O)N1)c1ccccc1O | 2200 |
| NC[C@H](CCCCNC(=O)c1cccc(O)c1O)NC(=O)c1c(O)cccc1F | 9300 |

molecular target: T2, Polyunsaturated fatty acid 5-lipoxygenase (Homo sapiens) (UniProt P09917); experiment: Inhibition of recombinant human 5-lipoxygenase at <10 uM using arachidonic acid as substrate preincubated for 10 mins followed by susbtrate addition and measured after 10 mins by reverse phase HPLC method
T2 sequence (whole entry): T1 sequence (P09917 whole entry)

| inhibition | SMILES |
| --- | --- |
| inactive | NC[C@H](CCCCNC(=O)c1ccccc1O)NC(=O)c1ccccc1O |
| inactive | NC[C@H](CCCCNC(=O)c1c(O)cccc1F)NC(=O)c1cccc(O)c1O |
